Results taken from the NIST ThermoML archive (doi:10.1016/j.jct.2008.10.007).

Experiments:
[1] = 298.15 K; 101 kPa; Liquid; Vibrating tube method
[2] = xn = mol fraction of the nth substance listed; conditions: 298.15 K, 101 kPa, Liquid, Vibrating tube method
[3] = excess molar enthalpy (molar enthalpy of mixing); xn = mol fraction of the nth substance listed; conditions: 298.15 K, 101 kPa, Liquid, Calvet calorimetry

CCCOC(=O)CC [propyl propanoate]
Conditions	mass density [kg/m3]
[1]	875.61

ClCCCCCCl [1,5-dichloropentane] + CCCOC(C)=O
Conditions	excess molar enthalpy [kcal/mol]	mass density [kg/m3]
[2], x2 = 0.0592	–	1083.72
[2], x2 = 0.126	–	1070.79
[2], x2 = 0.1854	–	1059.08
[2], x2 = 0.2502	–	1046.15
[2], x2 = 0.3122	–	1033.6
[2], x2 = 0.3736	–	1021.02
[2], x2 = 0.495	–	995.63
[2], x2 = 0.5537	–	983.11
[2], x2 = 0.6672	–	958.42
[2], x2 = 0.7269	–	945.17
[2], x2 = 0.7802	–	933.16
[2], x2 = 0.8365	–	920.34
[2], x2 = 0.889	–	908.23
[2], x2 = 0.9471	–	894.67
[3], x2 = 0.0656	-0.00382	–
[3], x2 = 0.1426	-0.00478	–
[3], x2 = 0.2338	-0.0134	–
[3], x2 = 0.3247	-0.0239	–
[3], x2 = 0.4088	-0.0337	–
[3], x2 = 0.4844	-0.0392	–
[3], x2 = 0.5426	-0.0409	–
[3], x2 = 0.5428	-0.0411	–
[3], x2 = 0.6183	-0.0409	–
[3], x2 = 0.6974	-0.0366	–
[3], x2 = 0.7844	-0.0282	–
[3], x2 = 0.8682	-0.0184	–
[3], x2 = 0.9448	-0.00813	–

ClCCCCCCCl [1,6-dichlorohexane] + CCCOC(=O)CC
Conditions	excess molar enthalpy [kcal/mol]	mass density [kg/m3]
[2], x2 = 0.0665	–	1052.5
[2], x2 = 0.1321	–	1041.17
[2], x2 = 0.1948	–	1030.19
[2], x2 = 0.2568	–	1019.24
[2], x2 = 0.3171	–	1008.42
[2], x2 = 0.3785	–	997.31
[2], x2 = 0.556	–	964.22
[2], x2 = 0.7294	–	930.71
[2], x2 = 0.7852	–	919.58
[2], x2 = 0.8399	–	908.58
[2], x2 = 0.8955	–	897.26
[2], x2 = 0.949	–	886.33
[3], x2 = 0.0728	-0.00598	–
[3], x2 = 0.1664	-0.0131	–
[3], x2 = 0.2656	-0.0232	–
[3], x2 = 0.3635	-0.0354	–
[3], x2 = 0.4374	-0.0418	–
[3], x2 = 0.4861	-0.0459	–
[3], x2 = 0.5174	-0.0483	–
[3], x2 = 0.5675	-0.0495	–
[3], x2 = 0.6298	-0.0483	–
[3], x2 = 0.7081	-0.043	–
[3], x2 = 0.7895	-0.0373	–
[3], x2 = 0.8738	-0.0237	–
[3], x2 = 0.9478	-0.011	–

CCCOC=O [propyl methanoate] + ClCCCl
Conditions	excess molar enthalpy [kcal/mol]	mass density [kg/m3]
[2], x1 = 0.0502	–	1224.05
[2], x1 = 0.0994	–	1203.36
[2], x1 = 0.1495	–	1182.95
[2], x1 = 0.2004	–	1162.75
[2], x1 = 0.2543	–	1141.88
[2], x1 = 0.308	–	1121.58
[2], x1 = 0.3635	–	1101.24
[2], x1 = 0.4207	–	1080.82
[2], x1 = 0.4795	–	1060.31
[2], x1 = 0.5379	–	1040.49
[2], x1 = 0.599	–	1020.32
[2], x1 = 0.6634	–	999.69
[2], x1 = 0.7281	–	979.46
[2], x1 = 0.7928	–	959.73
[2], x1 = 0.8612	–	939.48
[2], x1 = 1	–	899.81
[3], x1 = 0.074	-0.00956	–
[3], x1 = 0.1687	-0.021	–
[3], x1 = 0.2733	-0.0368	–
[3], x1 = 0.3675	-0.0478	–
[3], x1 = 0.4473	-0.0576	–
[3], x1 = 0.5035	-0.0607	–
[3], x1 = 0.5082	-0.0609	–
[3], x1 = 0.5746	-0.0598	–
[3], x1 = 0.6509	-0.0569	–
[3], x1 = 0.7385	-0.049	–
[3], x1 = 0.8389	-0.0344	–
[3], x1 = 0.9272	-0.0184	–

CCCOC(=O)CCC [propyl butanoate]
Conditions	mass density [kg/m3]
[1]	867.9

CCCOC(C)=O [propyl ethanoate]
Conditions	mass density [kg/m3]
[1]	882.08

ClCCCCl [1,3-dichloropropane] + CCCOC(C)=O
Conditions	excess molar enthalpy [kcal/mol]	mass density [kg/m3]
[2], x2 = 0.051	–	1160.75
[2], x2 = 0.1013	–	1143.09
[2], x2 = 0.1519	–	1125.74
[2], x2 = 0.2062	–	1107.55
[2], x2 = 0.2602	–	1089.75
[2], x2 = 0.314	–	1072.51
[2], x2 = 0.4262	–	1037.75
[2], x2 = 0.5391	–	1004.31
[2], x2 = 0.5986	–	987.32
[2], x2 = 0.6602	–	970.1
[2], x2 = 0.7227	–	953.06
[2], x2 = 0.758	–	943.63
[2], x2 = 0.7981	–	933.1
[2], x2 = 0.8553	–	918.23
[2], x2 = 0.934	–	898.35
[3], x2 = 0.054	-0.00908	–
[3], x2 = 0.1279	-0.0206	–
[3], x2 = 0.2091	-0.0349	–
[3], x2 = 0.2781	-0.049	–
[3], x2 = 0.3637	-0.0624	–
[3], x2 = 0.4401	-0.0741	–
[3], x2 = 0.5067	-0.0813	–
[3], x2 = 0.5223	-0.0829	–
[3], x2 = 0.572	-0.0837	–
[3], x2 = 0.6457	-0.0779	–
[3], x2 = 0.738	-0.0679	–
[3], x2 = 0.8364	-0.0488	–
[3], x2 = 0.931	-0.0237	–

CCCOC=O [propyl methanoate]
Conditions	mass density [kg/m3]
[1]	899.81
